Key:
Caco-2 cells = assay: Perfusion test of first pass effect, small intestine compartment (Caco-2 single layer film in insert); conditions: 240 μL of 62.5 μg/mL substrate solution in insert, HBSS perfusion, sampled every 30 minutes for 180 minutes, LC-MS-MS, FIG. 19
Procedure: (§1) In the present example, small intestine epithelial cells and liver cells were disseminated in separate compartments, and a first pass effect of a chemical substance was evaluated by using a device in which the respective compartments were connected via a flow path system. In the device described with reference to FIG. 1, Caco-2 cells were disseminated as model cells of the small intestine epithelial cells, and HepG2-CYP3A4 cells obtained by a genetic manipulation to excessively develop CYP3A4 in HepG2 cells were disseminated as model cells of the liver cells. Thus, the first pass effects (absorption and metabolism) of the chemical substance on two types of cells (the small intestine epithelial cells and the liver cells) were simultaneously evaluated.
(§2) • a) Caco-2 Cell • i) 0.4 mL of cell suspension was added to an inner side (an apical side) of a porous membrane filter at a density of 0.5 to 5×10^5 cells/cm^2 (e.g., 0.6×10^5 cells/cm^2). • ii) 0.8 mL of medium was added to an outer side (a basal side) of the porous membrane filter. • iii) The cells were cultured in a carbon dioxide gas incubator (5% of CO2 at 37° C. under humidification conditions) for about 3 weeks. An apical-side medium and a basal-side medium were appropriately changed.
(§3) Prior to use in a test, an electric resistance of a single layer film was measured by using an electric resistance measuring device.

HepG2-CYP3A4 cells = assay: Perfusion test of first pass effect, liver compartment (HepG2-CYP3A4 cells downstream of Caco-2 insert); conditions: 240 μL of 62.5 μg/mL substrate solution in insert, HBSS perfusion, sampled every 30 minutes for 180 minutes, LC-MS-MS, FIG. 20
Procedure: as §1, §2, §3

Cc1ncc2n1-c1ccc(Cl)cc1C(c1ccccc1F)=NC2 [midazolam, Midazolam]
permeation amount of midazolam permeated through the Caco-2 single layer film (Caco-2 cells): successive increase
permeation amount of midazolam (HepG2-CYP3A4 cells): successive increase

Source: patent publication US12655379B2, “Device for evaluation of chemical substance and method for evaluation of chemical substance” (SHINKO CHEMICAL CO., LTD., priority 2017, dated 2026)
